{
  "source": "patent US20250186437A1",
  "about": "“CARBOLINE COMPOUNDS AND USE THEREOF” (PTC Therapeutics, Inc., priority 2021, published 2025)",
  "data": [
    {"test_system": "MOLM-13 cells", "experiment": "MOLM-13 Cell Proliferation Assay (indicator of DHODH inhibition)", "format": "cell-based", "details": "Homo sapiens, 72 Hours of culture, CellTiter-Glo, no uridine", "outline": "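Low-passage MOLM-13 cells (10^4/well) in RPMI 1640 + 10% FBS exposed to compound (0.5% DMSO final) for 72 h at 37 °C, 5% CO2. Viability read by CellTiter-Glo luminescence; growth reflects de novo pyrimidine synthesis dependent on DHODH.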", "units": {"IC50": "nM"}, "values": [
      {"smiles": "Cc1nc(C)nc(N2CCc3c([nH]c4ccc(Cl)cc34)C2c2cnc(N3C4CCC3COC4)nc2)n1", "note": "(stereo not drawn) [Compound 338, 6-chloro-2-(4,6-dimethyl-1,3,5-triazin-2-yl)-1-[2-(3-oxa-8-azabicyclo[3.2.1]octan-8-yl)pyrimidin-5-yl]-2,3,4,9-tetrahydro-1H-pyrido[3,4-b]indole]", "IC50": 35},
      {"smiles": "Cc1nc(C)nc(N2CCc3c([nH]c4c(O)cc(Cl)cc34)C2c2ccc(N3CCOCC3)nc2)n1", "note": "(stereo not drawn) [Compound 339, 6-chloro-2-(4,6-dimethyl-1,3,5-triazin-2-yl)-1-[6-(morpholin-4-yl)pyridin-3-yl]-2,3,4,9-tetrahydro-1H-pyrido[3,4-b]indol-8-ol]", "IC50": 13.5},
      {"smiles": "Fc1ccccc1C1c2[nH]c3ccc(Cl)cc3c2CCN1c1nccc(C(F)(F)F)n1", "note": "(stereo not drawn) [Compound 341, 6-chloro-1-(2-fluorophenyl)-2-[4-(trifluoromethyl)pyrimidin-2-yl]-2,3,4,9-tetrahydro-1H-pyrido[3,4-b]indole]", "IC50": 6.8},
      {"smiles": "Cc1cc(C)nc(N2CCc3c([nH]c4ccc(Cl)cc34)C2c2ccc(C)c(F)c2F)n1", "note": "(stereo not drawn) [Compound 342, 6-chloro-1-(2,3-difluoro-4-methylphenyl)-2-(4,6-dimethylpyrimidin-2-yl)-2,3,4,9-tetrahydro-1H-pyrido[3,4-b]indole]", "IC50": 1},
      {"smiles": "FC(F)(F)c1ccnc(N2CCc3c([nH]c4ccc(Cl)cc34)C2c2cnc(N3CCC3)nc2)n1", "note": "(stereo not drawn) [Compound 344, 1-[2-(azetidin-1-yl)pyrimidin-5-yl]-6-chloro-2-[4-(trifluoromethyl)pyrimidin-2-yl]-2,3,4,9-tetrahydro-1H-pyrido[3,4-b]indole]", "IC50": 9.5},
      {"smiles": "Cc1nc(C)nc(N2CCc3c([nH]c4ccc(Cl)cc34)C2c2cnc(N3CCC3)nc2)n1", "note": "(stereo not drawn) [Compound 345, 1-[2-(azetidin-1-yl)pyrimidin-5-yl]-6-chloro-2-(4,6-dimethyl-1,3,5-triazin-2-yl)-2,3,4,9-tetrahydro-1H-pyrido[3,4-b]indole]", "IC50": 43.2},
      {"smiles": "CSc1ncc(C2c3[nH]c4ccc(Cl)cc4c3CCN2c2nc(C)nc(C)n2)cn1", "note": "(stereo not drawn) [Compound 346, 6-chloro-2-(4,6-dimethyl-1,3,5-triazin-2-yl)-1-[2-(methylsulfanyl)pyrimidin-5-yl]-2,3,4,9-tetrahydro-1H-pyrido[3,4-b]indole]", "IC50": 5.2},
      {"smiles": "FC(F)(F)c1ccnc(N2CCc3c([nH]c4ccc(Cl)cc34)C2c2ccc(Cl)cc2)n1", "note": "(stereo not drawn) [Compound 349, 6-chloro-1-(4-chlorophenyl)-2-[4-(trifluoromethyl)pyrimidin-2-yl]-2,3,4,9-tetrahydro-1H-pyrido[3,4-b]indole]", "IC50": 3},
      {"smiles": "Cc1ccnc(N2CCc3c([nH]c4c(N)cc(Cl)cc34)C2c2ccc(N3CCOCC3)nc2)n1", "note": "(stereo not drawn) [Compound 351, 6-chloro-2-(4-methylpyrimidin-2-yl)-1-[6-(morpholin-4-yl)pyridin-3-yl]-2,3,4,9-tetrahydro-1H-pyrido[3,4-b]indol-8-amine]", "IC50": 2.1},
      {"smiles": "Oc1ccccc1C1c2[nH]c3ccc(Cl)cc3c2CCN1c1nccc(C(F)(F)F)n1", "note": "(stereo not drawn) [Compound 353, 2-{6-chloro-2-[4-(trifluoromethyl)pyrimidin-2-yl]-2,3,4,9-tetrahydro-1H-pyrido[3,4-b]indol-1-yl}phenol]", "IC50": 5.7},
      {"smiles": "Cc1ccc(C2c3[nH]c4ccc(Cl)cc4c3CCN2c2nccc(C(F)(F)F)n2)cc1F", "note": "(stereo not drawn) [Compound 354, 6-chloro-1-(3-fluoro-4-methylphenyl)-2-[4-(trifluoromethyl)pyrimidin-2-yl]-2,3,4,9-tetrahydro-1H-pyrido[3,4-b]indole]", "IC50": 2.2},
      {"smiles": "Cc1ccc(C2c3[nH]c4ccc(Cl)cc4c3CCN2c2nc(C(F)(F)F)cc(C(F)(F)F)n2)cc1", "note": "(stereo not drawn) [Compound 360, 2-[4,6-bis(trifluoromethyl)pyrimidin-2-yl]-6-chloro-1-(4-methylphenyl)-2,3,4,9-tetrahydro-1H-pyrido[3,4-b]indole]", "IC50": 0.9},
      {"smiles": "Fc1cnc(N2CCc3c([nH]c4ccc(Cl)cc34)C2c2cnc(N3CCOCC3)nc2)nc1", "note": "(stereo not drawn) [Compound 364, 6-chloro-2-(5-fluoropyrimidin-2-yl)-1-[2-(morpholin-4-yl)pyrimidin-5-yl]-2,3,4,9-tetrahydro-1H-pyrido[3,4-b]indole]", "IC50": 10.1},
      {"smiles": "Cc1nc(N2CCc3c([nH]c4ccc(Cl)cc34)C2c2ccc(N3CCOCC3)nc2)ncc1F", "note": "(stereo not drawn) [Compound 365, 6-chloro-2-(5-fluoro-4-methylpyrimidin-2-yl)-1-[6-(morpholin-4-yl)pyridin-3-yl]-2,3,4,9-tetrahydro-1H-pyrido[3,4-b]indole]", "IC50": 8},
      {"smiles": "Cc1nc(N2CCc3c([nH]c4ccc(Cl)cc34)C2c2cnc(N3CCOCC3)nc2)ncc1F", "note": "(stereo not drawn) [Compound 366, 6-chloro-2-(5-fluoro-4-methylpyrimidin-2-yl)-1-[2-(morpholin-4-yl)pyrimidin-5-yl]-2,3,4,9-tetrahydro-1H-pyrido[3,4-b]indole]", "IC50": 10},
      {"smiles": "Cc1nc(N2CCc3c([nH]c4ccc(Cl)cc34)C2c2ccc(N3CCOCC3)nc2)nc(C)c1F", "note": "(stereo not drawn) [Compound 367, 6-chloro-2-(5-fluoro-4,6-dimethylpyrimidin-2-yl)-1-[6-(morpholin-4-yl)pyridin-3-yl]-2,3,4,9-tetrahydro-1H-pyrido[3,4-b]indole]", "IC50": 4.7},
      {"smiles": "Cc1nc(N2CCc3c([nH]c4ccc(Cl)cc34)C2c2cnc(N3CCOCC3)nc2)nc(C)c1F", "note": "(stereo not drawn) [Compound 368, 6-chloro-2-(5-fluoro-4,6-dimethylpyrimidin-2-yl)-1-[2-(morpholin-4-yl)pyrimidin-5-yl]-2,3,4,9-tetrahydro-1H-pyrido[3,4-b]indole]", "IC50": 7.9},
      {"smiles": "Cc1nc(C)nc(N2CCc3c([nH]c4c(O)cc(Cl)cc34)C2c2cnc(N3CCOCC3)nc2)n1", "note": "(stereo not drawn) [Compound 370, 6-chloro-2-(4,6-dimethyl-1,3,5-triazin-2-yl)-1-[2-(morpholin-4-yl)pyrimidin-5-yl]-2,3,4,9-tetrahydro-1H-pyrido[3,4-b]indol-8-ol]", "IC50": 8.1},
      {"smiles": "Fc1cccc(C2c3[nH]c4ccc(Cl)cc4c3CCN2c2nccc(C(F)(F)F)n2)c1", "note": "(stereo not drawn) [Compound 371, 6-chloro-1-(3-fluorophenyl)-2-[4-(trifluoromethyl)pyrimidin-2-yl]-2,3,4,9-tetrahydro-1H-pyrido[3,4-b]indole]", "IC50": 8.8},
      {"smiles": "FC(F)(F)c1ccnc(N2CCc3c([nH]c4ccc(Cl)cc34)C2c2ccc(N3C[C@H]4C[C@@H]3CO4)nc2)n1", "note": "(stereo partly drawn) [Compound 373, 6-chloro-1-{6-[(1R,4R)-2-oxa-5-azabicyclo[2.2.1]heptan-5-yl]pyridin-3-yl}-2-[4-(trifluoromethyl)pyrimidin-2-yl]-2,3,4,9-tetrahydro-1H-pyrido[3,4-b]indole]", "IC50": 4.6},
      {"smiles": "FC(F)(F)c1ccnc(N2CCc3c([nH]c4ccc(Cl)cc34)C2c2ccc(N3C[C@@H]4C[C@H]3CO4)nc2)n1", "note": "(stereo partly drawn) [Compound 375, 6-chloro-1-{6-[(1S,4S)-2-oxa-5-azabicyclo[2.2.1]heptan-5-yl]pyridin-3-yl}-2-[4-(trifluoromethyl)pyrimidin-2-yl]-2,3,4,9-tetrahydro-1H-pyrido[3,4-b]indole]", "IC50": 6.7},
      {"smiles": "Cc1nc(C)nc(N2CCc3c([nH]c4ccc(Cl)cc34)C2c2ccc(N3C[C@H]4C[C@@H]3CO4)nc2)n1", "note": "(stereo partly drawn) [Compound 376, 6-chloro-2-(4,6-dimethyl-1,3,5-triazin-2-yl)-1-{6-[(1R,4R)-2-oxa-5-azabicyclo[2.2.1]heptan-5-yl]pyridin-3-yl}-2,3,4,9-tetrahydro-1H-pyrido[3,4-b]indole]", "IC50": 33.2},
      {"smiles": "Cc1nc(C)nc(N2CCc3c([nH]c4ccc(Cl)cc34)C2c2ccc(N3C[C@@H]4C[C@H]3CO4)nc2)n1", "note": "(stereo partly drawn) [Compound 377, 6-chloro-2-(4,6-dimethyl-1,3,5-triazin-2-yl)-1-{6-[(1S,4S)-2-oxa-5-azabicyclo[2.2.1]heptan-5-yl]pyridin-3-yl}-2,3,4,9-tetrahydro-1H-pyrido[3,4-b]indole]", "IC50": 41.6},
      {"smiles": "Cc1ccc(C2c3[nH]c4ccc(Cl)cc4c3CCN2c2nccc(C#N)n2)cc1", "note": "(stereo not drawn) [Compound 378, 2-[6-chloro-1-(4-methylphenyl)-1,3,4,9-tetrahydro-2H-pyrido[3,4-b]indol-2-yl]pyrimidine-4-carbonitrile]", "IC50": 7},
      {"smiles": "Cc1ccc(C2c3[nH]c4ccc(Cl)cc4c3CCN2c2nc(C)cc(C#N)n2)cc1", "note": "(stereo not drawn) [Compound 379, 2-[6-chloro-1-(4-methylphenyl)-1,3,4,9-tetrahydro-2H-pyrido[3,4-b]indol-2-yl]-6-methylpyrimidine-4-carbonitrile]", "IC50": 4.5},
      {"smiles": "Cc1nc(C)nc(N2CCc3c([nH]c4ccc(Cl)cc34)C2c2cnc(N3CCN(C)CC3)nc2)n1", "note": "(stereo not drawn) [Compound 380, 6-chloro-2-(4,6-dimethyl-1,3,5-triazin-2-yl)-1-[2-(4-methylpiperazin-1-yl)pyrimidin-5-yl]-2,3,4,9-tetrahydro-1H-pyrido[3,4-b]indole]", "IC50": 26.3},
      {"smiles": "Fc1cnc(N2CCc3c([nH]c4ccc(Cl)cc34)C2c2ccc(N3CCOCC3)nc2)nc1", "note": "(stereo not drawn) [Compound 382, 6-chloro-2-(5-fluoropyrimidin-2-yl)-1-[6-(morpholin-4-yl)pyridin-3-yl]-2,3,4,9-tetrahydro-1H-pyrido[3,4-b]indole]", "IC50": 13.4},
      {"smiles": "FC(F)(F)c1cnnc(N2CCc3c([nH]c4ccc(Cl)cc34)C2c2cnc(N3CCOCC3)nc2)n1", "note": "(stereo not drawn) [Compound 383, 6-chloro-1-[2-(morpholin-4-yl)pyrimidin-5-yl]-2-[5-(trifluoromethyl)-1,2,4-triazin-3-yl]-2,3,4,9-tetrahydro-1H-pyrido[3,4-b]indole]", "IC50": 1.6},
      {"smiles": "Cc1cnnc(N2CCc3c([nH]c4ccc(Cl)cc34)C2c2cnc(N3CCOCC3)nc2)n1", "note": "(stereo not drawn) [Compound 384, 6-chloro-2-(5-methyl-1,2,4-triazin-3-yl)-1-[2-(morpholin-4-yl)pyrimidin-5-yl]-2,3,4,9-tetrahydro-1H-pyrido[3,4-b]indole]", "IC50": 25.6},
      {"smiles": "Cc1ccc([C@H]2c3[nH]c4ccc(Cl)cc4c3CCN2c2ncc(F)c(C#N)n2)c(F)c1F", "note": "[Compound 385, 2-[(1S)-6-chloro-1-(2,3-difluoro-4-methylphenyl)-1,3,4,9-tetrahydro-2H-pyrido[3,4-b]indol-2-yl]-5-fluoropyrimidine-4-carbonitrile]", "IC50": 2.2}
    ]}
  ]
}
